# Results from patent US9279010B2, “Treatment of inflammatory bowel diseases with mammal beta defensins” (Defensin Therapeutics ApS, priority 2008, dated 2016).
# Key:
# [1] = tested on: human peripheral blood mononuclear cells (PBMC); experiment: IL-1β production from LPS-treated human PBMC, CBA (Example 5, Table 23); assay type: cell-based
# Description: (§1) Peripheral blood was drawn from healthy volunteers (with approval from the relevant ethical committee in Denmark). Heparinized blood was diluted 1/1 v/v with RPMI and were subjected to Ficoll density centrifugation within 2 h of drawing. Plasma was collected from the top from individual donors and was kept on ice until it was used at 2% in the culture medium (autologous culture medium). Isolated PBMC were resuspended in autologous culture medium and seeded in 96-well culture plates with 255.000 cells per well in a total of 200 μl. […] The concentrations used for stimulation were optimized on 3 different donors in initial experiments, for LPS two different concentrations were used to be sure to be on a cytokine level that is possible to modulate. In some experiments PBMC were treated with Dexamethason and Indomethacin alone and together with LPS or LTA as a control on downregulation of inflammatory cytokines. The supernatants were collected after incubation at 37° C. for 24 hours, and stored at −80° C. until cytokine measurement. Viability was measured by Alamar Blue (Biosource, DALL 1100) in all experiments and in some cases also by MTS (Promega) according to manufacturer's instruction and was in some experiments also judged by counting of the cells by a Nucleocounter.
# (§2) Cytokine production in supernatants was measured by flow cytometry with a human inflammation cytometric bead array (CBA) according to manufacturer's instructions (BD) on a FACSarray flow cytometer. The following cytokines were measured: IL-8, IL-1β, IL-10, TNF, IL-12 p70, IL-6. In some experiments, cytokines were measured by ELISA kits from R&D systems (IL-10, TNF-α, IL-1β) according to the manufacturer′ instruction.
# (§3) Example 5 was carried out essentially as described in Example 4.
# (§4) In each table, all samples were tested on the same donor. SD means standard deviation.
# [2] = tested on: human peripheral blood mononuclear cells (PBMC); experiment: TNF production from LPS-treated human PBMC, CBA (Example 5); assay type: cell-based; conditions: Table 21
# Description: as §1, §2, §3, §4
# human PBMC [3] = experiment: Toxicity to human PBMC (Example 5); assay type: cell-based; conditions: 40 μg/ml
# Description: as §1, §3
# [4] = tested on: human peripheral blood mononuclear cells (PBMC); experiment: IL-10 production from LPS-treated human PBMC, CBA (Example 5); assay type: cell-based; conditions: for IL-10 / IL-10 % of control: Table 22
# Description: as §1, §2, §4
# human PBMC [5] = experiment: IL-23 in supernatants of human PBMC, ELISA (Example 6, Table 25); assay type: cell-based; conditions: test compound 1 μg/ml
# Description: as §1
# Example 6 was carried out essentially as described in Example 4 for human PBMCs; however, the readout was IL-23 instead of TNF, IL-1β and IL-10. Moreover, the effect of rhBD2 on human monocyte-derived dendritic cells was also investigated.
# Cell culture supernatants were collected and stored at −80° C. Amounts of IL-23 was measured by standard sandwich ELISA using commercially available antibodies and standards according to the manufacturer's protocols (eBioscience).
# All experiments were performed at least twice, with representative results shown. The data presented are expressed as mean plus/minus standard deviation […]. […] Differences were considered significant for p<0.05.
# [6] = tested on: human peripheral blood mononuclear cells (PBMC); experiment: TNF production from LPS-treated human PBMC, CBA (Example 7, Table 26); assay type: cell-based
# Description: as §1, §2
# (§5) Example 7 was carried out essentially as described in Example 4 for human PBMCs. […] The amino acid sequence of mBD3 is shown in SEQ ID NO:6. Mouse PBMCs were prepared as described below.
# [7] = tested on: mouse peripheral blood mononuclear cells (PBMC); experiment: TNF production from LPS-treated mouse PBMC, CBA (Example 7); assay type: cell-based, mouse (NMRI)
# Description: as §5
# Mouse peripheral blood mononuclear cells were isolated from blood of ten NMRI mice. In short, heparinized blood was diluted 1/1 v/v with RPMI and subjected to Ficoll density centrifugation within 2 h of drawing. Plasma was collected from the top and discarded. Isolated PBMC were resuspended in culture medium (RPMI 1640 (Gibco, 42401) w/ 1% penicillin and streptomycin and 1% L-Glutamine) and seeded in 96-well culture plates with 115.500 cells per well in a total of 200 μl. […] The supernatants were collected after incubation at 37° C. for 24 hours, and stored at −80° C. until cytokine measurement.
# Cytokine production in supernatants was measured by flow cytometry with a mouse inflammation cytometric bead array (CBA) according to manufacturer's instructions (BD) on a FACSarray flow cytometer.
# [8] = LPS 0.6 ng/ml, test compound 1 μg/ml
# [9] = LPS 0.6 ng/ml, test compound 10 μg/ml
# [10] = LPS 20 ng/ml, test compound 1 μg/ml
# [11] = LPS 20 ng/ml, test compound 10 μg/ml
# [12] = Medium (no LPS), test compound 1 μg/ml
# [13] = Medium (no LPS), test compound 10 μg/ml
# [14] = LPS 0.6 ng/ml, concentration of test compound not given
# [15] = LPS 20 ng/ml, concentration of test compound not given
# [16] = concentration not given, LPS 0.6 ng/ml
# [17] = concentration not given, LPS 20 ng/ml
# [18] = concentration not given, Medium
substance,measurement,setting,value
"hBD4 variant: consists of amino acids 3-39 of hBD4, SEQ ID NO:5 (ELDRICGYGTARCRKKCRSQEYRIGRCPNTYACCLRK)",IL-1β,[1]; [8],286 pg/mL
same,IL-1β % of control,[1]; [8],39%
same,IL-1β,[1]; [9],163 pg/mL
same,IL-1β % of control,[1]; [9],22%
same,IL-1β,[1]; [10],1004 pg/mL
same,IL-1β % of control,[1]; [10],40%
same,IL-1β,[1]; [11],463 pg/mL
same,IL-1β % of control,[1]; [11],18%
same,IL-1β,[1]; [12],0 pg/mL
same,IL-1β,[1]; [13],0 pg/mL
same,TNF,"[2]; 1 μg/ml, LPS 0.6 ng/ml",468 pg/mL
same,TNF % of control,"[2]; 1 μg/ml, LPS 0.6 ng/ml",64%
same,TNF,"[2]; 1 μg/ml, LPS 20 ng/ml",778 pg/mL
same,TNF % of control,"[2]; 1 μg/ml, LPS 20 ng/ml",36%
same,TNF,"[2]; 1 μg/ml, Medium",0 pg/mL
same,TNF,"[2]; 10 μg/ml, LPS 0.6 ng/ml",211 pg/mL
same,TNF % of control,"[2]; 10 μg/ml, LPS 0.6 ng/ml",29%
same,TNF,"[2]; 10 μg/ml, LPS 20 ng/ml",139 pg/mL
same,TNF % of control,"[2]; 10 μg/ml, LPS 20 ng/ml",6%
same,TNF,"[2]; 10 μg/ml, Medium",0 pg/mL
same,toxicity to the cells,human PBMC [3],toxic to the cells
same,IL-10,"[4]; 1 μg/ml, LPS 0.6 ng/ml",90 pg/mL
same,IL-10 % of control,"[4]; 1 μg/ml, LPS 0.6 ng/ml",136%
same,IL-10 % of control,"[4]; 1 μg/ml, LPS 20 ng/ml",157%
same,IL-10,"[4]; 1 μg/ml, Medium",0 pg/mL
same,IL-10,"[4]; 10 μg/ml, LPS 0.6 ng/ml",92 pg/mL
same,IL-10 % of control,"[4]; 10 μg/ml, LPS 0.6 ng/ml",139%
same,IL-10,"[4]; 10 μg/ml, LPS 20 ng/ml",187 pg/mL
same,IL-10 % of control,"[4]; 10 μg/ml, LPS 20 ng/ml",168%
same,IL-10,"[4]; 10 μg/ml, Medium",0 pg/mL
same,Secretion of IL-10,"[4]; human PBMC with LPS, summary of Table 22",significantly and dose-dependently enhanced
"Infliximab: anti-inflammatory compound, positive control on downregulation of TNF [reference compound]",IL-23 pg/ml,human PBMC [5]; Control (medium),227 pg/mL
same,IL-23 pg/ml,human PBMC [5]; LPS 0.6 ng/ml,356 pg/mL
same,IL-23 pg/ml,human PBMC [5]; LPS 20 ng/ml,373 pg/mL
same,IL-23 pg/ml,human PBMC [5]; LTA 5 μg/ml,349 pg/mL
same,TNF,[6]; [10],1 pg/mL
same,TNF,[6]; [12],0 pg/mL
same,TNF,"[7]; 1 μg/ml, LPS 20 ng/ml",2119 pg/mL
same,TNF,"[7]; 1 μg/ml, Medium",530 pg/mL
same,IL-1β,[1]; [14],636 pg/mL
same,IL-1β % of control,[1]; [14],86%
same,IL-1β,[1]; [15],2704 pg/mL
same,IL-1β % of control,[1]; [15],106%
same,IL-1β,"[1]; Medium (no LPS), concentration of test compound not given",0 pg/mL
same,TNF,[2]; [16],0 pg/mL
same,TNF % of control,[2]; [16],0%
same,TNF,[2]; [17],0 pg/mL
same,TNF % of control,[2]; [17],0%
same,TNF,[2]; [18],0 pg/mL
same,IL-10,[4]; [16],46 pg/mL
same,IL-10 % of control,[4]; [16],69%
same,IL-10,[4]; [17],63 pg/mL
same,IL-10 % of control,[4]; [17],56%
same,IL-10,[4]; [18],0 pg/mL
"mBD3: mouse beta defensin 3 (SEQ ID NO:6), prepared with the same protocol as hBD2 (KINNPVSCLRKGGRCWNRCIGNTRQIGSCGVPFLKCCKRK; mat_peptide (1)..(40); listed as Mus musculus)",TNF,[6]; [10],384 pg/mL
same,TNF,[6]; [11],51 pg/mL
same,TNF,"[6]; LPS 20 ng/ml, test compound 100 μg/ml",166 pg/mL
same,TNF,[6]; [12],2 pg/mL
same,TNF,[6]; [13],2 pg/mL
same,TNF,"[6]; Medium (no LPS), test compound 100 μg/ml",39 pg/mL
same,secretion of TNF,[6]; human PBMCs (Table 26),downregulating the secretion of TNF from human PBMCs to the same extend as hBD2 and dexamethason
same,TNF,"[7]; 1 μg/ml, LPS 20 ng/ml",1600 pg/mL
same,TNF,"[7]; 1 μg/ml, Medium",347 pg/mL
same,TNF,"[7]; 10 μg/ml, LPS 20 ng/ml",297 pg/mL
same,TNF,"[7]; 10 μg/ml, Medium",180 pg/mL
same,TNF,"[7]; 100 μg/ml, LPS 20 ng/ml",195 pg/mL
same,TNF,"[7]; 100 μg/ml, Medium",182 pg/mL
